Measurements reported in ChEMBL document CHEMBL1201862, “PubChem BioAssay data set” (2004).
Active and inactive are the calls of the source. Rule as the data show it, for most assays here: actives have a measured EC50 and inactives only a lower limit.

How the values were obtained:
[1] = target: T1, Replicative DNA helicase DnaB (Mycobacterium tuberculosis, UniProt P9WMR3); test: DnaB intein splicing inhibitors, dose response, biochemical, cell-free fluorescence (AID 449749); assay type: functional
T1 sequence (P9WMR3 whole entry): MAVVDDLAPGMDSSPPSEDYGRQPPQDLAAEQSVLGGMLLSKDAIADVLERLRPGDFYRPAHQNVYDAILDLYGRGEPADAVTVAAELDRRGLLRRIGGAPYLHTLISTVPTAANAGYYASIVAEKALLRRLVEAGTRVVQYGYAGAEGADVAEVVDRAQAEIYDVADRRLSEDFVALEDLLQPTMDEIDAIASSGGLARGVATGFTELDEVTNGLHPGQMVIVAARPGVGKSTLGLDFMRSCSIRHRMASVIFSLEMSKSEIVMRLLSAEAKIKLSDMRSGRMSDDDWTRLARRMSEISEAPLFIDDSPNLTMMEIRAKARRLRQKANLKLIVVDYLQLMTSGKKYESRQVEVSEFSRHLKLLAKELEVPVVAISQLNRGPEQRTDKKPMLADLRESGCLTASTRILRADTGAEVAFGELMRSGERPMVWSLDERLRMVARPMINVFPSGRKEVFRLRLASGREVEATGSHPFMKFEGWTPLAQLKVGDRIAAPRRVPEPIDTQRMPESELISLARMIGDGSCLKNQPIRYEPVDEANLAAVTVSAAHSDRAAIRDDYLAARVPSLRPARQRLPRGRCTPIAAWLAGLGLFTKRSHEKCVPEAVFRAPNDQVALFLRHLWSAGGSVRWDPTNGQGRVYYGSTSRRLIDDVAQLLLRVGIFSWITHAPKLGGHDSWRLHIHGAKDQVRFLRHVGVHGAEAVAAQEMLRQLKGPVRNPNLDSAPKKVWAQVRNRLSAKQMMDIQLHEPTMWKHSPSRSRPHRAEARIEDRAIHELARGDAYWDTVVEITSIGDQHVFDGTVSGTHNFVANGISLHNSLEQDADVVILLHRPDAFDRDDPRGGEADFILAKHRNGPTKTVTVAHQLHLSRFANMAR

Protein RecA = target: T2, Protein RecA (Mycobacterium tuberculosis, UniProt P9WHJ3); test: Fluorescence Cell-Free Homogeneous Dose Retest to Identify Inhibitors of RecA-Intein Splicing Activity. [Related pubchem assays (depositor defined):AID2097, AID2223, AID489010, AID492950]; assay type: functional
T2 sequence (P9WHJ3 whole entry): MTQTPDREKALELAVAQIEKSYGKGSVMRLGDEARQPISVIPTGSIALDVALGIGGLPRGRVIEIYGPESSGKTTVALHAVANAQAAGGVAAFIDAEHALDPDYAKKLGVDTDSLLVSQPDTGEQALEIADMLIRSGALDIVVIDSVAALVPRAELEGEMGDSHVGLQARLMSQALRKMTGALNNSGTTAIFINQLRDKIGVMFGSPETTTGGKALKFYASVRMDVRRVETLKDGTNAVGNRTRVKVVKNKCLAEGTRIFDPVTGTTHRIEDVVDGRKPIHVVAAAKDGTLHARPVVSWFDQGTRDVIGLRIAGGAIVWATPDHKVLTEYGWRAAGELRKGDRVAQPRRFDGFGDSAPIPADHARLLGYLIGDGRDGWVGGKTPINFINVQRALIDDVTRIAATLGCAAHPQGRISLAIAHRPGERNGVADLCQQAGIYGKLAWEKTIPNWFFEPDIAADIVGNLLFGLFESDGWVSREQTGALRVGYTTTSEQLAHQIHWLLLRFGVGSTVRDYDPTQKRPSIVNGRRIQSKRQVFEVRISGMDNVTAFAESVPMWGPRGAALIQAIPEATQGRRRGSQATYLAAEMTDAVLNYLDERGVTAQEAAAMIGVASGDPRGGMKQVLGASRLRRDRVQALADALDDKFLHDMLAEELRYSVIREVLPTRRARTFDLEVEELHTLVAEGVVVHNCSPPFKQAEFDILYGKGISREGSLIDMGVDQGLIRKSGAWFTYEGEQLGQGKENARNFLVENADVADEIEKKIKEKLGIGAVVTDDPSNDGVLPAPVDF

[2] = inhibitors of firefly luciferase expression or activity, dose response, H4 neuroglioma cells, luminescence (AID 1990); assay type: functional, cell-based
[3] = Luminescence Cell-Based Dose Response HTS to Identify Inhibitors of 5'UTR Stem-Loop Driven Prion Protein mRNA Translation in H4 Neuroglioblastoma Cells. [Related pubchem assays: 1827 (Project Summary), 1813 (Primary HTS)]; assay type: functional
[4] = inhibitors of SNCA 5'UTR-driven reporter translation, confirmation, H4 neuroglioma cells, luminescence (AID 1988); assay type: functional, cell-based
[5] = Luminescence Cell-Based Dose Confirmation HTS to Identify Activators of 5'UTR Stem-Loop Driven Alpha-Synuclein mRNA Translation in H4 Neuroglioblastoma Cells. [Related pubchem assays: 1829 (Project Summary), 1814 (Primary HTS)]; assay type: functional
[6] = Luminescence Cell-Based Dose Response HTS to Identify Activators of Luciferase Translation or Activity in H4 […] Cells. [Related pubchem assays: 1829 (Project Summary), 1814 (Primary HTS)]; assay type: functional
H4 = test: Luminescence Cell-Based Dose Response HTS to Identify Activators of 5'UTR Stem-Loop Driven Prion Protein mRNA Translation in H4 Neuroglioblastoma Cells. [Related pubchem assays: 1829 (Project Summary), 1814 (Primary HTS)]; assay type: functional; conditions: Homo sapiens
Cytochrome P450 2D6 = Cytochrome P450 2D6 (Homo sapiens, UniProt P10635);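 also: CYP2D6 member of a cytochrome P450 panel assay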
Sequence of Cytochrome P450 2D6 (P10635 whole entry): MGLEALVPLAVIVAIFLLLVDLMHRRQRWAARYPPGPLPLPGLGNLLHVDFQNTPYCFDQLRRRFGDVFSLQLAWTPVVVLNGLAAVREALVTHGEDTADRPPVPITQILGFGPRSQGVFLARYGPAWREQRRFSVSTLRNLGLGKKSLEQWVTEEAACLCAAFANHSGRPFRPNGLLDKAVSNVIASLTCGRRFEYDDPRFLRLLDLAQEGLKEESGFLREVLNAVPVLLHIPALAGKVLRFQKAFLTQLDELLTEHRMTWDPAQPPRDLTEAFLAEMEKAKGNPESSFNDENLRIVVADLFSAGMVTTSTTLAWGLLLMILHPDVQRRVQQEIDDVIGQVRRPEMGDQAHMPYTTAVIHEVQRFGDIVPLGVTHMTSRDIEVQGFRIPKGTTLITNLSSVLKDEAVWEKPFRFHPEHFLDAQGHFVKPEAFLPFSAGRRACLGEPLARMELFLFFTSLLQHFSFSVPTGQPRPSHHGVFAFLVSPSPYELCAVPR

Cytochrome P450 3A4 = Cytochrome P450 3A4 (Homo sapiens, UniProt P08684);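 also: CYP3A4 tested as one member of a cytochrome P450 panel screen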
Sequence of Cytochrome P450 3A4 (P08684 whole entry): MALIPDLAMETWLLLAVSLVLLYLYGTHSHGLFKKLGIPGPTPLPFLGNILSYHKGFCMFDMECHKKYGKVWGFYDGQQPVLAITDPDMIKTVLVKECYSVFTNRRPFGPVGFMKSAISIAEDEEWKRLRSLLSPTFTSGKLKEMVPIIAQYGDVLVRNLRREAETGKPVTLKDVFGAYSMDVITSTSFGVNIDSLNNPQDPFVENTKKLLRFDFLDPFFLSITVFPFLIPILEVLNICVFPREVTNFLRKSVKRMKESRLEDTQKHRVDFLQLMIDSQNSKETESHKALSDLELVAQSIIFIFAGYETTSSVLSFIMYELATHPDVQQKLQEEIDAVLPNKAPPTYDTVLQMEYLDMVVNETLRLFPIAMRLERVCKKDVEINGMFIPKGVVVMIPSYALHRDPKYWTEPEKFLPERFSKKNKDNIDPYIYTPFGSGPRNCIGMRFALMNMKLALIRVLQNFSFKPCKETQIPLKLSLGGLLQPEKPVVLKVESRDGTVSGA

Cytochrome P450 2C9 = Cytochrome P450 2C9 (Homo sapiens, UniProt P11712)
Sequence of Cytochrome P450 2C9 (P11712 whole entry): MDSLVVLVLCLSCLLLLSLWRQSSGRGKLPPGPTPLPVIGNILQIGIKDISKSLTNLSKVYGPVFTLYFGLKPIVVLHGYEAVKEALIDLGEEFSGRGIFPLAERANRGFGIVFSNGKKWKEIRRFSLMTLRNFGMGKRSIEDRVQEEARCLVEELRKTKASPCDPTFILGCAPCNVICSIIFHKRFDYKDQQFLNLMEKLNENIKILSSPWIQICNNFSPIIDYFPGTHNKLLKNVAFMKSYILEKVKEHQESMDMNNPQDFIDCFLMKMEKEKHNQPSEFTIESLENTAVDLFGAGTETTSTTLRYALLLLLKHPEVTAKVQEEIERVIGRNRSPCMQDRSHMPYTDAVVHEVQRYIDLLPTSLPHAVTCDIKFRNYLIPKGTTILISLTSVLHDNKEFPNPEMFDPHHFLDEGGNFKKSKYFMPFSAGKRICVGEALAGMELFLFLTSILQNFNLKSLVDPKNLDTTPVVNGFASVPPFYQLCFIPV

[7] = NIH-3T3 fibroblast cytotoxicity, dose response, cytotoxicity control, cell-based, fluorescence, Alamar Blue, secondary assay (AID 2327); assay type: functional;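 also: NIH-3T3 mouse fibroblasts cultured with fluconazole at 8 µg/mL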
[8] = C. albicans growth with fluconazole, confirmation, fluorescence, retest (AID 2467); assay type: functional, cell-based
[9] = inhibitors of intracellular T. cruzi replication, confirmation, NIH3T3 host cells, beta-gal luminescence (AID 2044); assay type: functional, cell-based;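 also: intracellular parasites grown in NIH/3T3 mouse fibroblasts as host cells; luminescent beta-galactosidase reporter signal from transgenic T. cruzi replicating inside host cells; inhibitors lower the luminescence signal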
[10] = cytotoxicity toward NIH3T3 fibroblasts, dose response, counter-screen, cell-based, ATP luminescence, mouse fibroblasts (AID 2010); assay type: functional;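 also: cells exposed to compound for about 90 hours before reading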
[11] = microbe, parasite or virus in culture; assay type: functional; conditions: Mycobacterium tuberculosis

Compound | EC50 [2] | EC50 [3] | EC50 [4] | EC50 [5] | EC50 [6] | EC50 (H4) | other results
CC(=O)N(CCC(Cc1ccccc1)c1ccc2c(c1)OCO2)Cc1ccccc1F (stereo unspecified) |  |  |  |  |  |  | AC50 [1]: 3.39 µM (active); EC50 (Protein RecA): 5.78 µM (active)
COc1ccc(Cl)cc1N(CC(=O)Nc1ccccc1C(=O)NCc1ccco1)S(C)(=O)=O | > 120 µM (not active) | > 120 µM (not active) | > 120 µM (not active) |  |  |  | 
Cc1ccc(-c2ccc(NC(=O)C3C4C=CC(C4)C3C(=O)O)cc2)o1 (stereo unspecified) |  |  |  | 2.07 µM (active) | 33.5 µM (active) | > 120 µM (not active) | 
Cc1ccccc1Nc1nc(N)nc(COC(=O)c2ccccc2)n1 |  |  |  | 40.5 µM (active) | 25.1 µM (active) | 25.7 µM (active) | 
O=C(CSCc1cc(O)n[nH]1)Nc1ccc(F)cc1 |  |  |  |  |  |  | AC50 [1]: 4.04 µM (active); EC50 (Protein RecA): 1.74 µM (active)
O=C(COc1ccc(Oc2ccccc2)cc1)NCc1cn2ccccc2n1 | 12.7 µM (active) | 14.8 µM (active) | 8.5 µM (active) |  |  |  | 
O=C(CN1C(=O)S/C(=C\c2ccc(O)cc2)C1=O)c1ccccc1 |  |  |  | 6.38 µM (active) | 6.77 µM (active) | 26 µM (active) | 
COC(=O)COc1ccc(-c2nccc(-c3ccccn3)n2)cc1 | < 0.1 µM (active) | 7.98 µM (active) | 0.159 µM (active) |  |  |  | 
COc1ccc(OC)c(NC(=O)CN2C(=O)CSc3ccc(S(=O)(=O)N4CCCC4)cc32)c1 | > 120 µM (not active) | > 120 µM (not active) | > 120 µM (not active) |  |  |  | 
O=C(C1=C[C@@H](c2csc3ccccc23)C[C@@H](OCc2ccc(CO)cc2)O1)N1CCN(Cc2ccc3c(c2)OCO3)CC1 | 11.3 µM (active) | > 120 µM (not active) | 9.17 µM (active) |  |  |  | 
CC(=O)c1cccc(NC(=O)CN2C(=O)COc3ccc(S(=O)(=O)N4CCOCC4)cc32)c1 | > 120 µM (not active) | > 120 µM (not active) | > 120 µM (not active) |  |  |  | 
CC(NC(=O)Cc1ccc(F)cc1)c1ccccc1 (stereo unspecified) |  |  |  |  |  |  | AC50 (Cytochrome P450 2D6): 15.8 µM (inconclusive); AC50 (Cytochrome P450 3A4): 25.1 µM (inconclusive); AC50 (Cytochrome P450 2C9): 10 µM (inconclusive)
CN1CC[C@@]2(CCCN(C(=O)c3ccco3)C2)C1 |  |  |  |  |  |  | AC50 (Cytochrome P450 2D6): 20 µM (inconclusive); AC50 (Cytochrome P450 3A4): 20 µM (inconclusive)
CCOP(=O)(OCC)c1nc(-c2ccc(Cl)cc2Cl)oc1N1CCCCC1 | > 120 µM (not active) | > 120 µM (not active) | 20.3 µM (active) |  |  |  | 
COc1ccc2oc(=O)c(-c3nc4ccccc4o3)cc2c1 |  |  |  | 3.5 µM (active) | 17.2 µM (active) | 24.1 µM (active) | 
CC1CCCC2(C1)N=C(S)c1c(sc3c1CCCC3)N2 (stereo unspecified) |  |  |  | > 120 µM (not active) | > 120 µM (not active) | > 120 µM (not active) | 
Cc1nn(-c2ccccc2)c(N2CCCC2)c1/C=N/NC(=O)c1ccccc1O | 29.2 µM (active) | > 120 µM (not active) | 27.3 µM (active) |  |  |  | EC50 [7]: > 150 µM (inactive); EC50 [8]: > 38 µM (not active)

Compound | EC50 [2] | EC50 [3] | EC50 [4] | EC50 [5] | EC50 [6] | EC50 (H4) | other results
COc1cc(C(=O)CSc2nnc(-c3ccc(O)cc3)n2CC2CCCO2)ccc1NC(C)=O (stereo unspecified) |  |  |  |  |  |  | AC50 [1]: > 380 µM (inactive); EC50 (Protein RecA): > 380 µM (inactive)
Cc1nc(S(=O)(=O)N(C)Cc2ccccc2)c(C#N)c(C)c1Cl |  |  |  | 5.83 µM (active) | 60.4 µM (active) | > 120 µM (not active) | 
O=C(NNC(=O)c1ccc([N+](=O)[O-])o1)c1ccccc1 |  |  |  |  |  |  | EC50 [9]: 0.13 µM (active); EC50 [10]: > 60 µM (not active); AC50 [1]: 23.5 µM (active); EC50 (Protein RecA): 13.5 µM (active)
Cc1ccc2c(c1)c1c(n2CC(O)CN2CCCCCC2)CCCC1 (stereo unspecified) |  |  |  |  |  |  | AC50 [1]: > 380 µM (inactive); EC50 (Protein RecA): > 380 µM (inactive)
COc1ccc(/C=C2/C(=O)N(c3ccccc3)N=C2C)cc1OC |  |  |  |  |  |  | AC50 [1]: 3.78 µM (active); EC50 (Protein RecA): 1.46 µM (active)
COc1ccccc1-n1c2nc3ccccc3nc2c2c(=O)n(-c3cc(C)cc(C)c3)cnc21 | > 120 µM (not active) | 0.528 µM (active) | > 120 µM (not active) |  |  |  | 
CN1C2=CC=CC=CC2=[N+](C)C12C([N+](=O)[O-])=CC(=[N+]([O-])[O-])C=C2[N+](=O)[O-] (stereo unspecified) |  |  |  | > 120 µM (not active) | > 120 µM (not active) | > 120 µM (not active) | 
Brc1ccc(C2=NC(Cc3ccccc3)CO2)cc1 (stereo unspecified) |  |  |  | 3.58 µM (active) | 3.81 µM (active) | 7.48 µM (active) | 
N#Cc1ccc(-c2ccc(F)cc2)nc1Oc1ccc(F)cc1 | > 120 µM (not active) | 22.6 µM (active) | > 120 µM (not active) |  |  |  | 
Cn1c(N)c(-c2nc3cccnc3n2C)sc1=S |  |  |  | > 120 µM (not active) | 9.72 µM (active) | > 120 µM (not active) | 
O=C(O)c1cc(NN=C2CCN(Cc3ccccc3)CC2)ccc1Cl |  |  |  | > 120 µM (not active) | 22.9 µM (active) | 18.7 µM (active) | 
NC(=O)[C@H](Cc1cc2ccccc2s1)NC(=O)[C@@H]1CC2(CC(c3cccc(NC(=O)[C@@H]4CCC(=O)N4)c3)=NO2)CN1C(=O)/C=C/c1c(F)cccc1Cl (stereo partly specified) |  |  |  |  |  |  | AC50 [1]: 20 µM (active); EC50 (Protein RecA): 168 µM (active)
OCc1ccc[n+](/C(C([S-])=Nc2ccc(SC(F)F)cc2)=C(/O)c2ccc(Cl)s2)c1 |  |  |  | 13.4 µM (active) | 14.2 µM (inconclusive) | 18.2 µM (active) | 
Cc1nn(Cc2ccccc2Cl)c(C)c1NC(=O)CCCn1nc(C)c([N+](=O)[O-])c1C | 21 µM (active) | > 120 µM (not active) | > 120 µM (not active) |  |  |  | 
O=C(NCc1nnnn1-c1ccc(F)cc1)c1ccc([N+](=O)[O-])o1 |  |  |  | 8.58 µM (active) | > 60 µM (not active) | 29 µM (active) | CC50 [11]: 19.3 µM (active)
O=C(C1CCN(c2nc(-c3ccccc3)nc3c2CCC3)CC1)N1CCCC1 | > 120 µM (not active) | 24.7 µM (active) | 16.7 µM (active) |  |  |  | 
